According to US7635693B2, “Methods for preventing and treating cancer using N-thiolated β-lactam compounds and analogs thereof” (University of South Florida, priority 2002, dated 2009):
“And” between values parts separate entries of the source, which are not always exact repeats. Identical values can stand only once. Like-named read-outs stand apart in the source and are kept apart here.

Tests used:
Jurkat T cells [1] = format: cell-based, human; details: for loss of membrane permeability (trypan blue incorporation): 8 hours
Description: The trypan blue exclusion assay was performed by injecting 10 μl of cell suspension containing 0.2% trypan blue dye into a hemoicytometer and counting. Numbers of cells that absorbed the dye and those that excluded the dye are counted, from which the percentage of non-viable cell number to total cell number is calculated.

LNCaP cells = LNCaP cells in soft agar, 50 μM, 21 day-incubation
Description: The soft agar assay was performed as described previously (Menter D G, Sabichi A L, Lippman S M., 2000, Selenium effects on prostate cell growth. Cancer Epidemiol Biomarkers Prev 9:1171-82) with a few modifications. In brief, in a six-well plate, a bottom feeder layer (0.6% agar) was prepared with DMEM media containing 10% fetal bovine serum, 100 units/ml penicillin, and 100 μg/ml streptomycin. […] Plates were incubated at 37° C. in 5% CO2 in a humidified incubator for three weeks. MTT (1 mg/ml) was added to each well and incubated overnight to allow complete formation of purple formazan crystals. The plates were then scanned and photographed, and the number of colonies was quantified by Quantity one v.4.0.3 software (Bio-Rad, Hercules, Calif.).

caspase-9 = details: 50 μM, up to 48 hours
Description: (§1) (FIG. 19A) MTT assay. (FIG. 19B) Cell-free caspase-9 activity assay. A protein extract (20 μg) is incubated with 20 μM Ac-LEHD-AFC (the specific caspase-9 substrate) in a 96-well plate at 37° C. for 2 h. After incubation, the liberated florescent AFC groups are measured by Wallac Victor 1420 Multilabel counter with 405/535 nm filters. […] Both intact and active forms of caspase-3 are indicated. […] Both detached and attached populations of Va-13 or WI-38 cells are collected, and used for nuclear staining assay with DNA staining dye Hoechst 33342.

caspase-3 [2] = details: 50 μM, up to 48 hours
Description: as §1

caspase-3 [3] = assay: Cell-free caspase-3 activity assay on extracts of treated Jurkat T cells; format: cell-based, human
Description: Briefly, a prepared protein extract (20 μg) is incubated in a buffer containing 50 mM Tris/pH 8.0 along with each respective caspase substrate at 20 μM in a 96 well plate. The reaction mixture is incubated at 37° C. for 2 h.
A library of β-lactam analogs was screened for their ability to induce apoptosis. The screening procedure is accomplished by treating human Jurkat T cells with each compound at 50 μM for 8 hours. This is followed by preparation of cell lysates and measurement of apoptosis-specific caspase-3 activation (by cell-free caspase-3 activity assay) and PARP cleavage (by Western blotting).

Jurkat T cells [4] = details: 50 μM, cited from earlier work
PCI-13 cells = details: PCI-13, 50 μM, 48 hour
Description: (§2) To assay nuclear morphology, both the detached or remaining attached solid tumor cells were washed with PBS, fixed with 70% ethanol for 1 hour, and stained with Hoechst 33342 (50 μM) for 30 minutes. The nuclear morphology of cells was visualized by a fluorescence microscope.
(§3) Both attached and detached cell populations were then used for detection of apoptotic nuclear changes.

PC-3 cells = details: PC-3, 50 μM, 48 hour
Description: as §2, §3

MCF-7 cells = details: MCF-7, 50 μM, 24 hour
Description: as §2, §3

MDA-MB-231 cells = details: MDA-MB-231, 50 μM, 48 hour
Description: as §2, §3

Jurkat T cells [5] = assay: TUNEL assay (DNA strand breaks), Jurkat T cells; format: cell-based, human; details: 50 μM
Description: Terminal deoxynucleotidyl transferase-mediated UTP nick end labeling (TUNEL) was performed to determine the extent of DNA strand breaks. TUNEL assay was performed with an APO-Direct kit per the manufacturer's instructions. In brief, cells are fixed in 1% paraformaldehyde and ethanol at […] overnight and then permeabilized with Proteinase K. After permeabilization, Fluorescein conjugated dNTP's and TdT enzyme (Terminal Deoxynucleotidyl Transferase) are added to the cells. The TdT enzyme is then able to label free ends of DNA with Fluorescein conjugated dNTPs that could then be detected by flow cytometry.
The assay was performed following manufacturer's instruction using the APO-Direct kit. In brief, the harvested cells were fixed in 1% paraformaldehyde for 15 min on ice, washed with PBS, and then fixed again in 70% ethanol at −20° C. overnight. The cells were then incubated in DNA labeling solution (containing terminal deoxynucleotidyl transferase (TdT) enzyme, fluorescein-conjugated dUTP and reaction buffer) for 90 min at 37° C. After removing the DNA labeling solution by rinsing cells with Rinsing Buffer, the cells were incubated with the Propidium Iodide/RNase A solution, incubated for 30 min at room temperature in the dark, and then analyzed by flow cytometry within 3 h of staining.

caspase-3 [6] = details: LNCaP cells, 48 h, 50 μM
Description: To measure cell-free caspase-3 activity, whole cell extracts (20-30 μg) from untreated or treated LNCaP cells were incubated with 20 μM of the fluorogenic substrate caspase-3/caspase-7 (Ac-DEVD-AMC) for 30 min at 37° C. in 100 μl of assay buffer (50 mM Tris, pH 8.0).

With `COC1C(=O)N(SC)C1c1ccccc1Cl` (racemic) [lactam 1] the “cell death (trypan blue)” value (Jurkat T cells [1]; 30 μM, 24 h) was 42%, the “cell death (trypan blue)” value (Jurkat T cells [1]; 50 μM, 3 h) was 11% and the “non-viable cell population (trypan blue)” value (Jurkat T cells [1]; 50 μM, 4 hours) was 20%. The trypan blue-positive cells (Jurkat T cells [1]; 50 μM, 6 h) was 20%, the “non-viable cell population / cell death (trypan blue)” value (Jurkat T cells [1]; 50 μM, 24 h) was 60% and ~52% and ~50% and the “loss of membrane permeability (trypan blue incorporation)” value (from here on “loss of membrane permeability”) (Jurkat T cells [1]; 50 μM) was about 30%. For the same compound, the “loss of membrane permeability” value (Jurkat T cells [1]; 60 μM) was about 80%, the “loss of membrane permeability” value (Jurkat T cells [1]; 20-40 μM) was about 10% and the “inhibition of colony formation” value (LNCaP cells) was 91%. The “cell-free caspase-9 activity” value (caspase-9; VA-13 cells) was “activated cell-free caspase-9 activity”, the “cell-free caspase-9 activity” value (caspase-9; WI-38 cells) was “no caspase-9 activation was detected” and the “processing and activation of caspase-3” value (caspase-3 [2]; VA-13 cells) was “detected only in the transformed, but not normal, human cells”. The “processing and activation of caspase-3” value (caspase-3 [2]; WI-38 cells) was “detected only in the transformed, but not normal, human cells”, the “time at which cell-free caspase-3 activity was first observed” value (caspase-3 [3]; 50 μM) was 4 h and the caspase-3 activation (caspase-3 [3]; 50 μM, 8 hours) was “greatest potency”. For the same compound, the “increase of caspase-3 levels over untreated cells” value (from here on “increase of caspase-3 levels”) (caspase-3 [3]; 8 hours, 20 μM) was 2 fold, the “increase of caspase-3 levels” value (caspase-3 [3]; 8 hours, 30 μM) was 3 fold and the “increase of caspase-3 levels” value (caspase-3 [3]; 8 hours, 40 μM) was 5 fold. For the same compound, the “increase of caspase-3 levels” value (caspase-3 [3]; 8 hours, 50 μM) was 11 fold, the sub-G1 population (Jurkat T cells [4]; 12 h (Smith et al., 2002)) was 10% and the sub-G1 population (Jurkat T cells [4]; 24 h (Smith et al., 2002)) was 16%. For the same compound, the “nuclear morphology of detached cells (Hoechst 33342)” value (“nuclear morphology of detached cells” for short) (PCI-13 cells) was “apoptosis-specific nuclear morphology”, the “nuclear morphology of detached cells” value (PC-3 cells) was “apoptosis-specific nuclear morphology” and the cells detached (MCF-7 cells) was about 50%. For the same compound, the “nuclear morphology of detached cells” value (MCF-7 cells) was “typical apoptotic nuclear condensation and fragmentation”, the “nuclear morphology of detached cells” value (MDA-MB-231 cells) was “apoptosis-specific nuclear morphology” and the “DNA strand breaks (TUNEL)” value (Jurkat T cells [5]; 1 hour) was “did not induce DNA strand breaks”. The “cell population positive for DNA strand breaks (TUNEL)” value (Jurkat T cells [5]; 2 hour) was “more than half of the cell population”, the TUNEL-positive cells (Jurkat T cells [5]; 24 h) was 66% and the “increase in caspase-3 activity over control” value (caspase-3 [6]) was 2.5 fold.
